Results taken from PubChem BioAssay (NCI).
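Assay format: 96-well plates, 48-hour exposure. Abbreviation: GI50, concentration required for 50% inhibition of growth. TGI marks complete inhibition of growth.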

Assays:
Assay in all cases: NCI tumour cell line growth inhibition, 48 h
U251 CNS = system: U251 CNS
DU-145 prostate = system: DU-145 prostate
SF-295 CNS = system: SF-295 CNS
NCI-H460 lung = system: NCI-H460 lung
A549 NSCLC = system: A549 NSCLC
HT29 colon = system: HT29 colon
MALME-3M melanoma = system: MALME-3M melanoma
SN12C renal = system: SN12C renal
SK-MEL-5 melanoma = system: SK-MEL-5 melanoma
786-0 renal = system: 786-0 renal
T-47D breast = system: T-47D breast
HOP-92 NSCLC = system: HOP-92 NSCLC
OVCAR-5 ovarian = system: OVCAR-5 ovarian
SNB-19 CNS = system: SNB-19 CNS
HCT-116 colon = system: HCT-116 colon
SF-268 CNS = system: SF-268 CNS
SF-539 CNS = system: SF-539 CNS
HCT-15 colon = system: HCT-15 colon
UACC-62 melanoma = system: UACC-62 melanoma
HCC-2998 colon = system: HCC-2998 colon
EKVX NSCLC = system: EKVX NSCLC
HS 578T breast = system: HS 578T breast
CCRF-CEM leukemia = system: CCRF-CEM leukemia
RXF 393 renal = system: RXF 393 renal
NCI-H522 lung = system: NCI-H522 lung
PC-3 prostate = system: PC-3 prostate
MCF7 breast = system: MCF7 breast
NCI/ADR-RES ovarian = system: NCI/ADR-RES ovarian
TK-10 renal = system: TK-10 renal
CAKI-1 renal = system: CAKI-1 renal
HOP-62 NSCLC = system: HOP-62 NSCLC
SW-620 colon = system: SW-620 colon
SNB-75 CNS = system: SNB-75 CNS
OVCAR-8 ovarian = system: OVCAR-8 ovarian
K-562 leukemia = system: K-562 leukemia
HL-60(TB) leukemia = system: HL-60(TB) leukemia
OVCAR-3 ovarian = system: OVCAR-3 ovarian
LOX IMVI melanoma = system: LOX IMVI melanoma
SK-OV-3 ovarian = system: SK-OV-3 ovarian
MDA-MB-435 = system: MDA-MB-435
MOLT-4 leukemia = system: MOLT-4 leukemia
UACC-257 melanoma = system: UACC-257 melanoma
BT-549 breast = system: BT-549 breast
SR leukemia = system: SR leukemia
ACHN renal = system: ACHN renal
IGROV1 ovarian = system: IGROV1 ovarian
RPMI-8226 leukemia = system: RPMI-8226 leukemia
M14 melanoma = system: M14 melanoma
OVCAR-4 ovarian = system: OVCAR-4 ovarian
SK-MEL-28 melanoma = system: SK-MEL-28 melanoma
MDA-MB-231 breast = system: MDA-MB-231 breast
SK-MEL-2 melanoma = system: SK-MEL-2 melanoma
COLO 205 colon = system: COLO 205 colon
NCI-H23 lung = system: NCI-H23 lung
UO-31 renal = system: UO-31 renal
KM12 colon = system: KM12 colon

Structure (SMILES): CNNC(=N\S(=O)(=O)c1cc(C)c(Cl)cc1SCc1ccccc1)/N=C/c1ccc([N+](=O)[O-])s1
- GI50 (U251 CNS): > 100 µM
- TGI (U251 CNS): > 100 µM
- GI50 (DU-145 prostate): > 100 µM
- TGI (DU-145 prostate): > 100 µM
- GI50 (SF-295 CNS): > 87.7 µM
- TGI (SF-295 CNS): > 100 µM
- GI50 (NCI-H460 lung): > 64.1 µM
- TGI (NCI-H460 lung): > 100 µM
- GI50 (A549 NSCLC): 59.2 µM
- TGI (A549 NSCLC): > 100 µM
- GI50 (HT29 colon): 27.4 µM
- TGI (HT29 colon): > 100 µM
- GI50 (MALME-3M melanoma): 1.18 µM
- TGI (MALME-3M melanoma): > 64.2 µM
- GI50 (SN12C renal): > 100 µM
- TGI (SN12C renal): > 100 µM
- GI50 (SK-MEL-5 melanoma): 1.48 µM
- TGI (SK-MEL-5 melanoma): > 37.3 µM
- GI50 (786-0 renal): > 100 µM
- TGI (786-0 renal): > 100 µM
- GI50 (T-47D breast): > 100 µM
- TGI (T-47D breast): > 100 µM
- GI50 (HOP-92 NSCLC): 10.9 µM
- TGI (HOP-92 NSCLC): > 83.8 µM
- GI50 (OVCAR-5 ovarian): > 100 µM
- TGI (OVCAR-5 ovarian): > 100 µM
- GI50 (SNB-19 CNS): > 100 µM
- TGI (SNB-19 CNS): > 100 µM
- GI50 (HCT-116 colon): 1.53 µM
- TGI (HCT-116 colon): > 100 µM
- GI50 (SF-268 CNS): > 100 µM
- TGI (SF-268 CNS): > 100 µM
- GI50 (SF-539 CNS): > 100 µM
- TGI (SF-539 CNS): > 100 µM
- TGI (HCT-15 colon): > 100 µM
- GI50 (UACC-62 melanoma): 47.9 µM
- TGI (UACC-62 melanoma): > 100 µM
- GI50 (HCC-2998 colon): 1.29 µM
- GI50 (EKVX NSCLC): > 29.6 µM
- TGI (EKVX NSCLC): > 100 µM
- GI50 (HS 578T breast): > 100 µM
- TGI (HS 578T breast): > 100 µM
- GI50 (CCRF-CEM leukemia): > 100 µM
- TGI (CCRF-CEM leukemia): > 100 µM
- GI50 (RXF 393 renal): > 100 µM
- TGI (RXF 393 renal): > 100 µM
- GI50 (NCI-H522 lung): > 100 µM
- TGI (NCI-H522 lung): > 100 µM
- GI50 (PC-3 prostate): > 100 µM
- TGI (PC-3 prostate): > 100 µM
- GI50 (MCF7 breast): 97.9 µM
- TGI (MCF7 breast): > 100 µM
- GI50 (NCI/ADR-RES ovarian): > 100 µM
- TGI (NCI/ADR-RES ovarian): > 100 µM
- GI50 (TK-10 renal): > 74.9 µM
- TGI (TK-10 renal): > 100 µM
- GI50 (CAKI-1 renal): > 100 µM
- TGI (CAKI-1 renal): > 100 µM
- GI50 (HOP-62 NSCLC): > 100 µM
- TGI (HOP-62 NSCLC): > 100 µM
- GI50 (SW-620 colon): 30.9 µM
- TGI (SW-620 colon): > 100 µM
- GI50 (SNB-75 CNS): > 100 µM
- TGI (SNB-75 CNS): > 100 µM
- GI50 (OVCAR-8 ovarian): > 100 µM
- TGI (OVCAR-8 ovarian): > 100 µM
- GI50 (K-562 leukemia): 28.4 µM
- TGI (K-562 leukemia): > 100 µM
- GI50 (HL-60(TB) leukemia): > 100 µM
- TGI (HL-60(TB) leukemia): > 100 µM
- GI50 (OVCAR-3 ovarian): > 44.1 µM
- TGI (OVCAR-3 ovarian): > 100 µM
- GI50 (LOX IMVI melanoma): > 77.2 µM
- TGI (LOX IMVI melanoma): > 100 µM
- GI50 (SK-OV-3 ovarian): > 100 µM
- TGI (SK-OV-3 ovarian): > 100 µM
- GI50 (MDA-MB-435): 18.5 µM
- TGI (MDA-MB-435): > 100 µM
- GI50 (MOLT-4 leukemia): > 100 µM
- TGI (MOLT-4 leukemia): > 100 µM
- GI50 (UACC-257 melanoma): > 100 µM
- TGI (UACC-257 melanoma): > 100 µM
- GI50 (BT-549 breast): > 100 µM
- TGI (BT-549 breast): > 100 µM
- GI50 (SR leukemia): 41.2 µM
- TGI (SR leukemia): > 100 µM
- GI50 (ACHN renal): > 100 µM
- TGI (ACHN renal): > 100 µM
- GI50 (IGROV1 ovarian): > 100 µM
- TGI (IGROV1 ovarian): > 100 µM
- GI50 (RPMI-8226 leukemia): 0.422 µM
- TGI (RPMI-8226 leukemia): > 45.3 µM
- GI50 (M14 melanoma): 9.97 µM
- TGI (M14 melanoma): > 78.5 µM
- GI50 (OVCAR-4 ovarian): > 100 µM
- TGI (OVCAR-4 ovarian): > 100 µM
- GI50 (SK-MEL-28 melanoma): > 100 µM
- TGI (SK-MEL-28 melanoma): > 100 µM
- GI50 (MDA-MB-231 breast): > 56.7 µM
- TGI (MDA-MB-231 breast): > 100 µM
- GI50 (SK-MEL-2 melanoma): > 100 µM
- TGI (SK-MEL-2 melanoma): > 100 µM
- GI50 (COLO 205 colon): 0.776 µM
- GI50 (NCI-H23 lung): > 100 µM
- TGI (NCI-H23 lung): > 100 µM
- GI50 (UO-31 renal): > 100 µM
- TGI (UO-31 renal): > 100 µM
- GI50 (KM12 colon): 3.03 µM
- TGI (KM12 colon): > 100 µM
